Reference: patent publication US11332438B2, “Creatine prodrugs, compositions and methods of use thereof” (Ultragenyx Pharmaceutical Inc., priority 2017, dated 2022)
Where a name gives a salt, the structure may show the parent alone.

Experiments:
[1] = Chemical stability in phosphate buffered saline (PBS); assay type: physicochemical; details: 50 μM prodrug
Description: (§1) Chemical stability of creatine prodrugs in phosphate buffered saline (PBS), simulated intestinal fluid (SIF) without pancreatin, simulated gastric fluid (SGF) without pepsin were determined by LC-UV, LC-CAD, LC-UV-CAD or LC-MS/MS as appropriate. Creatine prodrugs of the present disclosure (50 μM) were incubated at 37° C. according to described protocols and prodrug levels were compared between t=0, t=15, t=60, and t=120 mins by peak area ratio to determine the percentage remained at t=120 mins (2 h).
(§2) Protocol for PBS, SIF and SGF stability for screening:
(§3) Prodrugs (50 μM) were incubated in PBS, FaSSIF (Biorelevant) or FaSSGF (Biorelevant) at 37° C.

[2] = Prodrug cleavage in human brain homogenates (HBH): d3-Cr release and d3-Crn cyclization; assay type: in vitro ADME; details: 200 μM prodrug, 3 h, % of nominal input
Description: For assessment of the ability of prodrugs to release creatine, and to release creatine preferentially to unwanted cyclization to creatinine, d3-labeled (deuterium labeled methyl group) prodrugs are incubated with brain homogenates (e.g., mouse, human) specially prepared to preserve FAAH activity or with rFAAH for direct cleavage study. The use of d3-labelled prodrugs is essential in order to distinguish prodrug-derived creatine (d3-creatine) from high concentrations of endogenous (non-labeled) creatine. […] Prodrugs are tested at final concentrations of 20 μM and 200 μM. Approximately 3-4 mg of homogenate is used for each reaction. Co-factor (NADPH) is included at a final concentration of 1 mM. FAAH activity is confirmed by conversion of 7-amino-4-methyl Coumarin-Arachidonamide to 7-amino-4-methyl Coumarin by fluorescent assay. Negative controls include incubations without brain homogenate/rFAAH (but with NADPH) or 65° C. heat inactivated brain homogenate/rFAAH to assess non-enzymatic prodrug cleavage under the conditions of the assay and FAAH inhibitor […] at the concentration of 1 μM. Prodrug incubations are prepared by addition of 8 μL of prodrug stock solution (500 or 5000 μM in DMSO or DMSO/methanol) to assay buffered, followed by addition of brain homogenate/rFAAH. […] The samples are centrifuged at 15890×g for 10 minutes at 4° C., followed by transfer of the supernatants for storage at −20° C. pending LC-MS/MS analysis. Sample supernatants are analyzed by LC-MS/MS for determination of d3-prodrug, d3-creatine and d3-creatinine levels.
Deuterated creatine prodrugs were tested in 3 different in vitro assays to assess d3-creatine (d3-Cr) release and cyclization to form d3-creatinine (d3-Crn). These assays were 1) direct cleavage with recombinant human FAAH enzyme (rFAAH), 2) cleavage in mouse brain homogenates (MBH), and 3) human brain homogenates (HBH).
Creatine prodrug cleavage efficiency was determined by percentage of net d3-Cr release in μM (positive reaction subtracted from negative control of no brain homogenate/rFAAH or inactivated brain homogenate/rFAAH) over nominal input concentration of 200 μM prodrug at 3 h. Propensity for creatinine cyclization was determined by percentage of d3-Crn generated in μM in positive reaction over nominal input concentration of 200 μM prodrug at 3 h.

[3] = Chemical stability in simulated gastric fluid (SGF) without pepsin; assay type: physicochemical; details: 50 μM prodrug
Description: as §1, §2, §3

[4] = system: Phenocell CrT deficient neurons (iPSC-derived human neurons); test: Creatine prodrug uptake and d3-creatine release in Phenocell CrT deficient neurons (Table 4B); assay type: cell-based; details: 2 hours
Description: Human neurons were obtained by differentiation of iPSC-derived neural stem cells for 14 days. The iPSCs were obtained from Phenocell Corporation. Neurons were cultured and differentiated to Day 10 and then frozen in liquid nitrogen. Neurons were thawed and replated at 1×10^6 per well of viable cells on poly-ornithine/laminin coated plates in 2 ml medium per well. Differentiation in complete Neurol medium with 2 ng/ml FGF2 was carried out for 4 additional days with a complete medium change (90% of medium) on Day 12. Activin A (20 ng/ml final conc.) was spiked into the cultures on Day 11 and Day 13. […] In parallel, compounds were incubated in medium alone to assess chemical stability of parent prodrug and metabolites. At the end of the 2 hour incubation, supernatants were collected and frozen at −80 C. Neurons in 6 well plates were washed gently 3× with HBSS and frozen at −80° C. Cell lysates were obtained by addition of 130 μl/well 10 mM Tris pH 7.4 with complete Mini protease inhibitors and scraping of wells. Plates were kept on ice during processing. Lysates were homogenized by hand briefly with a green pestle in 1.5 ml centrifuge tubes and then vortexed at high speed for 5 seconds. Lysates were centrifuged at 13,000 g, 10 minutes, 4 C and supernatants (cytosol fraction) were transferred in a new tube. A crash solution constituted of 80% acetonitrile and 20% water with bucetin, d5-Cr (internal standard) was added at 4:1 volume to volume to 50 ul of all samples for a total volume of 250 μL. Then plate was spun at 4000 rpm, 10 minutes, […] Samples were transferred to a new plate and frozen at −80 C prior to analysis by LC-MS/MS (Table 4B).

[5] = Liver microsome stability, mouse; assay type: in vitro ADME; details: liver microsomes, pH 7.4, Table 2B, read-out: Microsome Stability Mouse t1/2
Description: (§4) The stabilities of creatine prodrugs can be evaluated in one or more in vitro systems using a variety of preparations following methods known in the art. Experimental conditions useful for the in vitro studies are described in Table 1. Prodrug is added to each preparation in triplicate. […]
(§5) Protocol for Microsomal Stability:
(§6) For reference compound, a 500 μM spiking solution was prepared: add 10 μL of 10 mM DMSO stock solution into 190 μL ACN. […] For test compound, a 5 mM spiking solution was prepared: add 10 μL of 10 mM DMSO stock solution into 10 μL ACN. […] NADPH stock solution (6 mM) was prepared by dissolving NADPH into buffer 0.1 M Potassium Phosphate buffer, 1.0 mM EDTA, pH 7.4. […] For 0-min, 135 μL of ACN containing IS was added to the wells of 0-min plate and then 15 μL of NADPH stock solution (6 mM) was added. 15 μL of NADPH stock solution (6 mM) was added to the samples designated as 0-, 5-, 10-, 20-, 30-min, 60-min; 15 μL of buffer 0.1 M Potassium Phosphate buffer, 1.0 mM EDTA, pH 7.4, was added to the samples designated as 60-min without NADPH. At 5-min, 10-min, 20-min, and 30-min, 60-min 135 μL of ACN containing IS was added to the wells of corresponding plates, respectively, to stop the reaction. […] 50 μL of the supernatant from each well was transferred into a 96-well sample plate containing 50 μL of ultra pure water (Millipore, ZMQS50FOI) and analyzed by LC/MS.

[6] = Plasma stability, mouse plasma; assay type: in vitro ADME; details: 37 °C, read-out: Plasma Stability Mouse t1/2
Description: as §4
(§7) Protocol for plasma stability for early screen macrocycles (Method A):
(§8) Frozen plasma was thawed by placing at 37° C. quickly and centrifuged at 3,000 rpm for 8 minutes to remove clots. Then the supernatant was pipetted and pooled as the plasma to be used in the experiment. The plasma was placed on ice until used. The test compounds and reference compounds spiking solution was prepared as a 2.5 mM test compounds spiking solution A: Add 20 μL of 10 mM test compounds stock solution to 60 μL DMSO. 0.1 mM Spiking solution B was prepared: Add 40 μL of spiking solution A to 960 μL of […] Sodium phosphate buffer with 0.5% BSA. […] For 0-min, 400 μL of ACN containing IS was added to the wells of 0-min plate and then 90 μL of plasma was added. […] 50 μL of the supernatant was transferred from each well into a 96-well sample plate containing 120 μL of ultra pure water (Millipore, ZMQS50F01) and analyzed by LC/MS.
(§9) Protocol for plasma stability (Method B):
(§10) The frozen plasma was thawed in a 37° C. water bath and then, if needed, adjusted to pH=7.4 then preheated in a 37° C. incubator. The test article was dissolved in 10% DMSO/water and spiked into plasma pre-plated into 96 well plates at a final concentration of 1 μM. Discrete incubations were performed at 37° C. and included 5 time points: t=0, 2, 5, 15, and 30 min. Samples were then crashed with 4× volume, ice cold 20% water/80% acetonitrile and spun at 4000 g for 10 mins. The supernatant was dried down and reconstituted with water and analyzed by LC-MS/MS. The half life in minute was calculated.

[7] = Liver microsome stability, human; assay type: in vitro ADME; details: liver microsomes, pH 7.4, Table 2B, read-out: Microsome Stability Human t1/2
Description: as §4, §5, §6

[8] = Plasma stability, human plasma; assay type: in vitro ADME; details: 37 °C, read-out: Plasma Stability Human t1/2
Description: as §4, §7, §8, §9, §10

Cl.[2H]C([2H])([2H])N(CC(=O)OCC(C)(C)C)C(=N)NC(=O)CCCCCCCCCC [Compound 39]
Chemical Stability PBS % T0 at 2 hours at 37 °C. ([1]; Table 2A): 62% | Prodrug Cleavage Human BH d3-Crn release [2]: 166.5% | Prodrug Cleavage Human BH net d3-Cr release ([2]; negative control subtracted): 6.4% | Chemical Stability SGF, no enzyme % T0 at 2 hours at 37 °C. ([3]; Table 2A): 103%

Cl.[2H]C([2H])([2H])N(CC(=O)OC(C)C(C)(C)C)C(=N)NC(=O)CCCCCCCCCC (stereo not drawn) [Compound 52]
Chemical Stability PBS % T0 at 2 hours at 37 °C. ([1]; Table 2B): 98% | Chemical Stability SGF, no enzyme % T0 at 2 hours at 37 °C. ([3]; Table 2B): 98% | Prodrug concentration in the cell cytosol ([4]; Study No. 1, 10 μM): 3.47 nmoles/mg protein | d3-Creatine concentration in the cell cytosol ([4]; Study No. 1, 10 μM): 0.65 nmoles/mg protein | d3-Creatinine concentration in the cell cytosol ([4]; Study No. 1, 10 μM): 0.84 nmoles/mg protein | Prodrug concentration in the cell cytosol ([4]; Study No. 1, 50 μM): 12 nmoles/mg protein | d3-Creatine concentration in the cell cytosol ([4]; Study No. 1, 50 μM): 2.9 nmoles/mg protein | d3-Creatinine concentration in the cell cytosol ([4]; Study No. 1, 50 μM): 29.6 nmoles/mg protein | Prodrug concentration in the cell cytosol ([4]; Study No. 2, 50 μM): 9.5 nmoles/mg protein | d3-Creatine concentration in the cell cytosol ([4]; Study No. 2, 50 μM): 0.8 nmoles/mg protein | d3-Creatinine concentration in the cell cytosol ([4]; Study No. 2, 50 μM): 10.6 nmoles/mg protein | Prodrug concentration in the cell cytosol ([4]; Study No. 3, 50 μM): 0.51 nmoles/mg protein | d3-Creatine concentration in the cell cytosol ([4]; Study No. 3, 50 μM): 2.84 nmoles/mg protein | d3-Creatinine concentration in the cell cytosol ([4]; Study No. 3, 50 μM): 8.82 nmoles/mg protein

[2H]C([2H])([2H])N(CC(=O)O)C(=N)NC(=O)CCCCCCCCCCO [Compound 54]
half-life at 10 μM [5]: > 1.5 h | half-life ([6]; Table 2B): > 3 h | half-life at 10 μM [7]: > 1.5 h | Chemical Stability PBS % T0 at 2 hours at 37 °C. ([1]; Table 2B): 103% | Chemical Stability SGF, no enzyme % T0 at 2 hours at 37 °C. ([3]; Table 2B): 102% | half-life ([8]; Table 2B): > 3 h | Prodrug concentration in the cell cytosol ([4]; Study No. 1, 10 μM): BLOQ | d3-Creatine concentration in the cell cytosol ([4]; Study No. 1, 10 μM): BLOQ | d3-Creatinine concentration in the cell cytosol ([4]; Study No. 1, 10 μM): BLOQ | Prodrug concentration in the cell cytosol ([4]; Study No. 1, 50 μM): BLOQ | d3-Creatine concentration in the cell cytosol ([4]; Study No. 1, 50 μM): BLOQ | d3-Creatinine concentration in the cell cytosol ([4]; Study No. 1, 50 μM): BLOQ

[2H]C([2H])([2H])N1CC(=O)OC(C)(C)CCCCCCCC(=O)NC1=N [Compound X, 5-imino-15,15-dimethyl-4-(methyl-d3)-1-oxa-4,6-diazacyclopentadecane-2,7-dione]
Prodrug concentration in the cell cytosol ([4]; Study No. 3, 50 μM): BLOQ | d3-Creatine concentration in the cell cytosol ([4]; Study No. 3, 50 μM): BLOQ

[2H]C([2H])([2H])N1CC(=O)OC(C)(C)CCCCCCCCCC(=O)NC1=N [Compound U, 5-imino-4-trideuteriomethyl-17,17-dimethyl-1-oxa-4,6-diazacycloheptadecane-2,7-dione]
half-life ([6]; Table 2C, macrocycles): 1.17 h | half-life ([8]; Table 2C, macrocycles): 1.2 h | Prodrug concentration in the cell cytosol ([4]; Study No. 3, 50 μM): 0.48 nmoles/mg protein | d3-Creatine concentration in the cell cytosol ([4]; Study No. 3, 50 μM): BLOQ

[2H]C([2H])([2H])N1CC(=O)OC(C)CCCCCCCC(=O)NC1=N (stereo not drawn) [Compound S, 5-imino-4-trideuteriomethyl-15-methyl-1-oxa-4,6-diazacyclopentadecane-2,7-dione]
Prodrug concentration in the cell cytosol ([4]; Study No. 3, 50 μM): BLOQ | d3-Creatine concentration in the cell cytosol ([4]; Study No. 3, 50 μM): BLOQ

[2H]C([2H])([2H])N1CC(=O)O[C@H](C)CCCCCCCCCC(=O)NC1=N [Compound Q, (R)-5-imino-4,17-dimethyl-1-oxa-4,6-diazacycloheptadecane-2,7-dione Hydrochloride]
half-life ([6]; Table 2C, macrocycles): 0.0217 h | half-life ([8]; Table 2C, macrocycles): 0.167 h | Prodrug concentration in the cell cytosol ([4]; Study No. 2, 100 μM): BLOQ | Prodrug concentration in the cell cytosol ([4]; Study No. 2, 500 μM): BLOQ
